This test deals with purified human recombinant GK (Homo sapiens (Human), UniProt P35557). In words: Glucokinase activity assay (coupled enzymatic, G6PD/NADH absorbance at 340 nm). As to conditions: for EC50: EC50 of % change in S0.5 of glucokinase for glucose, sigmoidal fit, read-out: EC50 (with respect to % ΔS0.5); for Emax: Emax of % change in S0.5 of glucokinase for glucose, vehicle S0.5 = 0%, 0 mM glucose = 100%, read-out: % Emax (with respect to % ΔS0.5). Type of test: biochemical. The text has this:
The glucokinase (GK) assay is a coupled enzymatic assay. GK catalyzes the first step of glycolysis, the conversion of glucose to glucose-6-phosphate (G6P) in the presence of ATP. G6P in turn is converted by glucose-6-phosphate dehydrogenase (G6PD) to 6-phosphogluconate, a process that requires NAD, resulting in NADH formation. Since the GK-catalyzed step is the rate-limiting step of this coupled enzymatic process, the rate of accumulation of 6-phosphogluconate and NADH is directly proportional to the rate of glucose phosphorylation by GK. The rate of the GK-catalyzed reaction can therefore be measured by monitoring the increase in NADH absorbance at 340 nm.
The assay is carried out according to the protocol outlined in Hariharan et al (1997), Diabetes 46: 11-16. Briefly, the test compounds are incubated in a reaction mix containing 25 mM HEPES (pH 7.2), 10 mM MgCl2, 100 mM KCl, 5 mM ATP, 2 mM DTT, 0.5 mM NAD, 1 U/mL Leuconostoc mesenteroides G6PD, 0.3 U/mL of purified human recombinant GK, and different concentrations of glucose. Enzymatic activity is calculated from the initial reaction velocity, measured from the change in NADH absorbance as a function of time.
Compounds described in formula (I), in concentration ranges from 1.0 nM to 500 μM, are tested in the purified human recombinant glucokinase assay described above.
A compound is considered to be a glucokinase activator if it, in its testable range of concentrations, yields a higher rate of glucose phosphorylation than in its absence at a particular glucose concentration, for example at 5 mM glucose.
Compounds of general formula (I) are tested in the in vitro GK enzymatic assay to monitor dose-dependent effect on glucokinase activation (in kinetic mode), as described above, at various glucose concentrations. The S0.5 of glucokinase for glucose at different concentration of each compound of interest is calculated from the following modified version of the Michaelis-Menten equation, V=Vmax [S]^n/(S0.5^n+[S]^n), where [S] is the glucose concentration and n is the Hill coefficient (taken as 1.7 to account for the sigoidal kinetics of glucokinase with respect to glucose). The S0.5 is plotted against the log of the compound concentration. The change in the S0.5 of glucokinase (ΔS0.5) for glucose is calculated by subtracting the S0.5 at each concentration of the compound from the S0.5 in the vehicle control. The ΔS0.5 is then normalized to a percent scale, where the S0.5 in the vehicle control is set to 0% and 0 mM glucose is set to 100%. The % ΔS0.5 is then plotted against the log of the compound concentration. The EC50 and Emax of % change in S0.5 is obtained from the sigoidal fit of the data. Detailed protocol has been described in our copending application no. 409/CHE/2007 which is incorporated herein by reference. Characterization data of some representative glucokinase activators of the present disclosure, which are illustrative but not limiting, are given in table I below.

Our source for the EC50 and Emax values is patent US9340506B2, “Acetamide derivatives as glucokinase activators, their process and medicinal applications” (ADVINUS THERAPEUTICS LIMITED, priority 2007, dated 2016).

The term EC50 denotes the concentration giving half of the maximal effect. Usually Emax stands for the size of the effect at its maximum, as opposed to the concentration needed.

purified human recombinant GK, sequence (P35557 whole entry): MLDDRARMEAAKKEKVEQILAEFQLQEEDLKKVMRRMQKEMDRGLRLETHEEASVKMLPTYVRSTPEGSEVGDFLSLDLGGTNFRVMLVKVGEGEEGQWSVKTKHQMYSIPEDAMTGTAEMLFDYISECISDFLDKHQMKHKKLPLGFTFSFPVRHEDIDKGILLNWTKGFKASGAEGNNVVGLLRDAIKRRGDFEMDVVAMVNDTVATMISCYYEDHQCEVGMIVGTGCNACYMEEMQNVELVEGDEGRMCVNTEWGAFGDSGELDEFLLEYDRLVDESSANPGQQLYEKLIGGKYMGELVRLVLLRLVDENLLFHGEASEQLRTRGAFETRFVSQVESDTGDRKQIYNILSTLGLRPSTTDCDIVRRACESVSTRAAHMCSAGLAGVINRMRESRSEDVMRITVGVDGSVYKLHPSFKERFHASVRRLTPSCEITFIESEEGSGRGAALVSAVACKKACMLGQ

As for `CN1CCC(OC(C(=O)Nc2ncc(F)s2)c2ccc(S(=O)(=O)C3CC3)cc2)CC1` (stereo not drawn) [Example A-32, 2-(4-Cyclopropylsulfonylphenyl)-N-(5-fluorothiazol-2-yl)-2-[(1-methyl-4-piperidyl)oxy]acetamide], the EC50 was greater than 10000 nM. In the case of `O=C(Nc1nc2ccc(C(O)CO)nc2s1)C(OC1CCOCC1)c1ccc(S(=O)(=O)C2CC2)cc1` (stereo not drawn) [Example E2, 2-(4-Cyclopropanesulfonyl-phenyl)-N-[5-(1,2-dihydroxy-ethyl)-thiazolo[5,4-b]pyridin-2-yl]-2-(tetrahydro-pyran-4-yloxy)-acetamide], the concentration for a half-maximal effect (EC50) is 1500 nM and the Emax was 93%. On to `Cc1ccc(Oc2cnc(NC(=O)C(O[C@@H]3CCOC3)c3ccc(S(=O)(=O)C4CC4)cc3)s2)cc1C(=O)O` (single isomer, unassigned; (+)) [Example G11A], for which the EC50 was 570 nM and the Emax came out at 92%.

In the case of `O=C(Nc1nccs1)C(OC1CCOCC1)c1ccc(S(=O)(=O)C2CC2)cc1` (stereo not drawn) [Example A-1, 2-(4-Cyclopropylsulfonylphenyl)-2-tetrahydropyran-4-yloxy-N-thiazol-2-yl-acetamide], the EC50 was 1400 nM and the Emax is 89%.

With `O=C(O)c1cc(Oc2cnc(NC(=O)C(OC3CCOCC3)c3ccc(S(=O)(=O)C4CC4)cc3)s2)ccc1Cl` (stereo not drawn) [Example B-23, 2-chloro-5-[2-[[2-(4-cyclopropylsulfonylphenyl)-2-tetrahydropyran-4-yloxy-acetyl]amino]thiazol-5-yl]oxy-benzoic acid], the EC50 came out at 480 nM and the Emax came to 94%.

For `O=C(Nc1ncc(Oc2cccc(CO)c2)s1)C(OC1CCOCC1)c1ccc(S(=O)(=O)C2CC2)cc1` (stereo not drawn) [Example D3, 2-(4-cyclopropylsulfonylphenyl)-N-[5-[3-(hydroxymethyl)phenoxy]thiazol-2-yl]-2-tetrahydropyran-4-yloxy-acetamide], the EC50 turned out to be 140 nM and the Emax was 92%. Consider `CCOC(=O)c1cccc(Oc2cnc(NC(=O)C(OC3CCOCC3)c3ccc(S(=O)(=O)C4CC4)cc3)s2)c1` (single isomer, unassigned; (+)) [Example G19A, (+)ethyl 3-[2-[[2-(4-cyclopropylsulfonylphenyl)-2-tetrahydropyran-4-yloxy-acetyl]amino]thiazol-5-yl]oxybenzoate], for which the EC50 stood at 100 nM and the Emax is 95%.

`O=C(O)c1cncc(Oc2cnc(NC(=O)C(OC3CCOCC3)c3ccc(S(=O)(=O)C4CC4)cc3)s2)c1` (single isomer, unassigned; (+)) [Example G22A, (+)5-[2-[[2-(4-cyclopropylsulfonylphenyl)-2-tetrahydropyran-4-yloxy-acetyl]amino]thiazol-5-yl]oxypyridine-3-carboxylic acid]: the EC50 came out at 290 nM and the Emax stood at 95%.

As to `O=C(O)c1ccc(Oc2cnc(NC(=O)C(OC3CCOCC3)c3ccc(S(=O)(=O)C4CC4)cc3)s2)cc1Cl` (stereo not drawn) [Example B-20, 2-chloro-4-[2-[[2-(4-cyclopropylsulfonylphenyl)-2-tetrahydropyran-4-yloxy-acetyl]amino]thiazol-5-yl]oxy-benzoic acid], the EC50 was determined as 590 nM and the Emax is 94%. On to `O=C(O)c1cc(Oc2cnc(NC(=O)C(OC3CCOCC3)c3ccc(S(=O)(=O)C4CC4)cc3)s2)ccn1` (stereo not drawn) [Example B-49, 4-[2-[[2-(4-cyclopropylsulfonylphenyl)-2-tetrahydropyran-4-yloxy-acetyl]amino]thiazol-5-yl]oxypyridine-2-carboxylic acid], for which the EC50 is 570 nM and the Emax worked out at 92%. For `O=C(O)C1CCc2nc(NC(=O)C(OC3CCOCC3)c3ccc(S(=O)(=O)C4CC4)cc3)sc2C1` (stereo not drawn) [Example B-4, 2-[[2-(4-cyclopropylsulfonylphenyl)-2-tetrahydropyran-4-yloxy-acetyl]amino]-4,5,6,7-tetrahydro-1,3-benzothiazole-6-carboxylic acid] the same measures were 3700 nM and 83%.
